Data on three compounds can be found in US20230168203A9, “Pyrogallarene Chelating and Sequestering Agents” (Kinsey Spiel, priority 2018, published 2023).

Data set [1] is described as follows: Solid state contact of nearly dry pyrogallarenes with stainless steel spatula. The conditions noted are these: freshly-synthesized. An excerpt:
Pyrogallarenes, including C-methyl Pyrogallol[4]arene, C-ethyl Pyrogallol[4]arene, and C-propyl pyrogallol[4]arene, have a high affinity for metals, even in a homogeneous solid state reaction. For example, a stainless steel spatula in contact with these freshly-synthesized and not completely dry (nearly dry) pyrogallarenes results in a color shift from white to blue where the spatula came in contact with the pyrogallol[4]arene. This example may illustrate, as in previous examples, that a chelation reaction has occurred.

Data set [2] is described as follows: Example A: colour of C-propyl pyrogallol[4]arene colloid in deionized water after adding metal chloride salts (chelation indicator). As to the method: A stock solution of was made of 400 mg of purified C-propyl pyrogallol[4]arene dissolved in 20 mL of acetone. […] Upon dispensing this aliquot the aqueous solutions were a colorless white colloid. The colloid appeared to be somewhat translucent. Upon dispensing NaCl into one colorless colloid the color was unchanged. Then various chloride salts of metals were added to colorless C-propyl pyrogallol[4]arene colloids. Upon adding ZnCl2 the colloid turned light brown. Upon adding MgCl2 the colloid turned pink. Upon adding Fe(III)Cl3 the colloid turned grey. Upon adding Cu(I)Cl the colloid turned brown. Upon adding CaCl2 the colloid turned pink. Upon adding Cr(III)Cl3 the colloid turned green. Upon adding BaCl2.2H2O the colloid turned pink. Upon adding MnCl2 the colloid turned salmon. Upon adding NiCl2 the colloid turned salmon.
In Example A, half of the metal salts, ZnCl2, MgCl2, CaCl2, and BaClz.2H2O, were colorless in their solid form, before adding them to the colloid. Pyrogallarene chelation is evident as a colorless salts are added to a colorless colloid and varying colors result. Five of the salts were colored in their solid form. […] Although Fe(III)Cl3 was brownish red in its solid form the resulting colloid solution was grey. Cu(I)Cl was green in its solid form but the resulting colloid solution was brown. NiCl2 was green in its solid form but the resulting colloid solution was pink.

Data set [3] can be described thus: Resilience of chelated precipitate at high temperature. It is filed as physicochemical. The procedure: Unlike some solids where solubility increases rapidly with increasing temperature the pyrogallarene chelated precipitate is resilient at high temperature. […] A chelate made from C-propyl pyrogallol[4]arene and a variety of metals is also undissolved at 80° C. […] However, heterogeneous pyrogallol[4]arene chelation complexes appear to dissolve minimally into aqueous solutions, limited by a low Ksp as discussed above.

Data set [4] is described as follows: Example B: precipitate formation of C-ethyl pyrogallarene colloid (from saturated methanol) after adding metal chlorides. The text has this:
Some metals required more time for a precipitate to form.

Data set [5] is described as follows: Example C: C-ethyl pyrogallol[4]arene colloid (from acetone stock) after adding chloride salts. As to the method: Upon dispensing this aliquot the aqueous solutions were colorless white colloids. Various chloride salts were added to the solution including […], Tungsten(IV) chloride, Strontium chloride, Titanium chloride, Zirconyl (IV) chloride octahydrate, Aluminum chloride, and Hafnium chloride. All metal salts were colorless except Tungsten(IV) chloride, which was light green, and Titanium chloride, which was a yellow solution. […] All other colloids appeared unchanged immediately after the addition of the metal. This may be a result of no chelation or slow reaction kinetics for the chelated complex. Finally, one additional salt, colorless Gadolinium Chloride, was tested. […] As stated previously, various examples may indicate chelation and sequestration by pyrogallarenes on a PPM level, owing to the solubility of various chloride salts. For example, PbCl2 is very poorly soluble in water.

The procedure of data set [6]: A stock solution of was made of 100 mg of purified C-ethyl pyrogallol[4]arene dissolved in 20 mL of acetone. 1 mL aliquots of this stock solution were dispensed into vials containing 20 mL of water. Sample one contained TDS of 330, Ca of 30 ppm, Mg of 26 ppm, K of 1 ppm, Si of 15 ppm, bicarbonate of 360 ppm, Pb of <0.001, and a pH of 7.2. Sample two contained TDS of 222, Ca of 18 ppm, Mg of 15 ppm, K of 5.3 ppm, Si of 93 ppm, bicarbonate of 152 ppm, and a pH of 7.7. Sample three contained TDS of 44, Ca of 5 ppm, Mg of 1 ppm, K of 0 ppm, bicarbonate of 20 ppm, and a pH of 7.8.
This is another data set of the same source.

Data set [7] is described as follows: Heterogeneous chelation: solid pyrogallol[4]arene dispensed into unpurified aqueous solution.

Molecules are shown by their SMILES. Read-outs that look alike come from different tables or passages of the source.

Take `CC1c2cc(c(O)c(O)c2O)C(C)c2cc(c(O)c(O)c2O)C(C)c2cc(c(O)c(O)c2O)C(C)c2cc1c(O)c(O)c2O` (centres unmarked) [C-methyl Pyrogallol[4]arene]: in data set [1], the “color shift where spatula came in contact” value was “white to blue”.
`CCCC1c2cc(c(O)c(O)c2O)C(CCC)c2cc(c(O)c(O)c2O)C(CCC)c2cc(c(O)c(O)c2O)C(CCC)c2cc1c(O)c(O)c2O` (centres unmarked) [C-propyl pyrogallol[4]arene]: the solubility in water result was “only slightly soluble”. The colour of colloid entry in data set [2] (BaCl2.2H2O added) is given as “pink”. Also, in data set [2] (CaCl2 added), the colour of colloid entry is reported as “pink”. Moreover, the colour of colloid result in data set [2] (Cr(III)Cl3 added) is given as “green”. The colour of colloid result in data set [2] (Cu(I)Cl added) is on record as “brown”. In data set [2] (Fe(III)Cl3 added), the colour of colloid entry is “grey”. Besides, in data set [2] (MgCl2 added), the colour of colloid result is “pink”. Moreover, the colour of colloid result in data set [2] (MnCl2 added) is on record as “salmon”. Moreover, in data set [2] (NaCl added), the colour of colloid entry was “unchanged”. In addition, in data set [2] (NiCl2 added), the colour of colloid entry is recorded as “salmon”. Besides, the colour of colloid entry in data set [2] (ZnCl2 added) is on record as “light brown”. In data set [1], the “color shift where spatula came in contact” value is “white to blue”. Moreover, in data set [3] (chelate with PbCl2, 80° C), the stability of chelate entry is “stable and undissolved”. Besides, the stability of chelate result in data set [3] (chelate with a variety of metals, 80° C) is recorded as “undissolved”.
Take `CCC1c2cc(c(O)c(O)c2O)C(CC)c2cc(c(O)c(O)c2O)C(CC)c2cc(c(O)c(O)c2O)C(CC)c2cc1c(O)c(O)c2O` (centres unmarked) [C-ethyl pyrogallol[4]arene]: the solubility in water result is listed as “mostly insoluble”. In data set [4] (BaClz.2H2O, 24 hours later), the precipitate formed result is on record as “white precipitate”. Besides, the precipitate formed result in data set [4] (CaCl2 added, immediately) is given as “blue precipitate”. For the same compound, the precipitate formed entry in data set [4] (Cr(III)Cl3, 24 hours later) is “white precipitate”. Further, the precipitate formed entry in data set [4] (Cu(I)Cl, 24 hours later) is given as “grey precipitate”. For the same compound, in data set [4] (NiClz, 24 hours later), the precipitate formed entry is given as “white precipitate”. In addition, in data set [4] (PbCl2 added, immediately), the precipitate formed entry was “blue precipitate”. Besides, the precipitate formed entry in data set [4] (ZnCl2 added, immediately) is “blue precipitate”. In addition, in data set [5] (Aluminum chloride added, immediately after addition), the observation on colloid result is “unchanged”. For the same compound, the observation on colloid result in data set [5] (Gadolinium Chloride added) is given as “purple precipitate”. Also, in data set [5] (Hafnium chloride added), the observation on colloid result is “grey precipitate”. Moreover, the observation on colloid entry in data set [5] (Strontium chloride added) was “white precipitate”. Moreover, the observation on colloid entry in data set [5] (Titanium chloride added, immediately after addition) was “unchanged”. For the same compound, the observation on colloid result in data set [5] (Tungsten(IV) chloride added, immediately after addition) is given as “unchanged”. Besides, in data set [5] (Yttrium(II) chloride hydrate added), the observation on colloid result is listed as “purple precipitate”. Moreover, the observation on colloid result in data set [5] (Zirconyl (IV) chloride octahydrate added) is “clear grey solution”. Also, the “observation on water sample” value in data set [6] (Sample four: pH 9.4) is on record as “pink colored solution”. Further, the “observation on water sample” value in data set [6] (Sample one: TDS 330, Ca 30 ppm, Mg 26 ppm, pH 7.2) is “dense blue precipitate”. In addition, in data set [6] (Sample three: TDS 44, Ca 5 ppm, Mg 1 ppm, pH 7.8, several days), the “observation on water sample” value was “did not produce a precipitate”. In addition, the “observation on water sample” value in data set [6] (Sample two: TDS 222, Ca 18 ppm, Mg 15 ppm, pH 7.7, over a few minutes) is “diffuse blue precipitate”. In data set [1], the “color shift where spatula came in contact” value was “white to blue”. Further, the dissolution of solid result in data set [7] (solid in unpurified aqueous solution) is recorded as “almost completely undissolved”. The “shift of absorbance colour of solid” value in data set [7] (solid, colorless compound in unpurified aqueous solution) is on record as “blue”.
